According to the supplement of paper PMC13380429:

Legend:
U2OS [1] = test: cell viability relative to DMSO; higher = less toxic; conditions: 72 h
HepG2 [2] = test: as above; conditions: 72 h
Calu-3 [3] = test: as above; conditions: 72 h
Vero E6 [4] = test: as above; conditions: 72 h
Caco-2 [5] = test: as above; conditions: 72 h
[6] = tested on: A549-ACE2 infected with SARS-CoV-2; test: morphology score (similarity to uninfected cells); higher = more like uninfected cells; conditions: 24 h
[7] = tested on: A549-ACE2 infected with SARS-CoV-2; test: cell count relative to DMSO; higher = less toxic; conditions: 24 h
U2OS [8] = test: relative viability EC50 (midpoint between 100% and the lowest measured viability); higher = less toxic; conditions: 72 h
HepG2 [9] = test: as above; conditions: 72 h
Calu-3 [10] = test: as above; conditions: 72 h
Vero E6 [11] = test: as above; conditions: 72 h
[12] = tested on: A549-ACE2 infected with SARS-CoV-2; test: SARS-CoV-2 infection rate relative to DMSO; higher = more infection; conditions: 24 h
A549-ACE2 = test: drug-induced phospholipidosis relative to tamoxifen; higher = more phospholipidosis
U2OS [13] = test: drug sensitivity score (DSS) for viability; higher = more toxic; extreme values may be limits of the assay; conditions: 72 h
HepG2 [14] = test: as above; conditions: 72 h
Calu-3 [15] = test: as above; conditions: 72 h
Vero E6 [16] = test: as above; conditions: 72 h
Caco-2 [17] = test: as above; conditions: 72 h

O=[N+]([O-])/C=C/c1ccc2c(c1)OCO2 [3,4-methylenedioxy-beta-nitrostyrene]
Conditions	SARS-CoV-2 infection rate, [12] [%]	cell count, [7] [%]	cell viability, Caco-2 [5] [%]	cell viability, Calu-3 [3] [%]	cell viability, HepG2 [2] [%]	cell viability, U2OS [1] [%]	cell viability, Vero E6 [4] [%]	morphology score, [6]
1 nM	–	–	94.9	101	115	99.2	103	–
10 nM	–	–	107	105	97.9	97.5	101	–
100 nM	–	–	93.8	101	101	97.1	99.9	–
0.3 µM	95	106	–	–	–	–	–	0.14
1000 nM	–	–	104	100	95.9	100	96.9	–
3 µM	107	97	–	–	–	–	–	0.21
10000 nM	–	–	72.3	95.5	91.3	43.7	84.3	–
10 µM	39	49	–	–	–	–	–	0.48
30 µM	36	16	–	–	–	–	–	0.16

Conditions	drug sensitivity score	relative viability EC50 [µM]
Caco-2 [17]	0.9	–
Calu-3 [10]	–	> 10
Calu-3 [15]	0	–
HepG2 [9]	–	> 10
HepG2 [14]	0	–
U2OS [8]	–	3.2
U2OS [13]	3	–
Vero E6 [11]	–	> 10
Vero E6 [16]	0.6	–

drug-induced phospholipidosis [%], A549-ACE2
Conditions	0.3 µM	0.833333 µM	3.33333 µM	6.66667 µM	30 µM
24 h	1.47	-0.82	0.27	3.08	-3.87
48 h	-0.23	-2.22	-2.44	-0.19	–
72 h	-0.171	-1.69	-1.41	-0.796	–

Cc1csc(-c2nnc(Nc3ccc(Oc4ncccc4-c4ccnc(N)n4)cc3)c3ccccc23)c1 [AMG900]
Conditions	SARS-CoV-2 infection rate, [12] [%]	cell count, [7] [%]	cell viability, Caco-2 [5] [%]	cell viability, Calu-3 [3] [%]	cell viability, HepG2 [2] [%]	cell viability, U2OS [1] [%]	cell viability, Vero E6 [4] [%]	morphology score, [6]
1 nM	–	–	94.6	104	101	93.9	100	–
10 nM	–	–	90.5	90.7	73.4	93.8	82.2	–
100 nM	–	–	96.1	92	76.6	85.5	80.4	–
0.1 µM	97	77	–	–	–	–	–	0.14
0.3 µM	93	73	–	–	–	–	–	0.2
1000 nM	–	–	77.3	77.8	53.6	82.3	81.7	–
1 µM	105	74	–	–	–	–	–	-0.05
3 µM	104	75	–	–	–	–	–	-0.08
10000 nM	–	–	65.5	81.4	2.2	68.2	75.8	–

Conditions	drug sensitivity score	relative viability EC50 [µM]
Caco-2 [17]	4.2	–
Calu-3 [10]	–	> 10
Calu-3 [15]	3.3	–
HepG2 [9]	–	0.54
HepG2 [14]	13.9	–
U2OS [13]	4.3	–
Vero E6 [11]	–	> 10
Vero E6 [16]	8.5	–

drug-induced phospholipidosis [%], A549-ACE2
Conditions	0.3 µM	0.833333 µM	3.33333 µM	6.66667 µM	10 µM	30 µM
24 h	13.3	10.1	22.8	35.6	44.4	33.3
48 h	–	–	27.1	–	34.6	7.09
